The text below walks through data of PMC3742671, “Structure, Antimicrobial Activities and Mode of Interaction with Membranes of Bovel Phylloseptins from the Painted-Belly Leaf Frog, Phyllomedusa sauvagii” (PLoS ONE, 2013).

Where two headings read alike, the source gives them in different places. Ends that are not written are not given here. Some results are limits rather than exact numbers.

Test [1] relates to E. coli ML-35p. Briefly: Permeabilization of the cytoplasmic membrane (ONPG hydrolysis). Type of test: cell-based. As to conditions: ONP production at 405 nm from ONPG; compared with 10 µM dermaseptin B2 as positive control. As to the method: PLS-induced permeabilization of the cytoplasmic plasma membranes of E. coli ML-35p and S. aureus ST1065 was measured by the rate of production of o-nitrophenol (ONP) at 405 nm, following hydrolysis of o-nitrophenyl β-D-galactopyranoside (ONPG) by β-galactosidase. Dermaseptin B2 (10 µM) and PBS were used as positive and negative controls, respectively.
(§1) PLS-induced permeabilization of the cytoplasmic membranes of S. aureus ST1065 and E. coli ML-35p was analyzed by incubating the bacteria, which express β-galactosidase constitutively, with different concentrations of the peptides (S. aureus ST1065: PLS-S1, -S2, and -S4; E. coli ML-35p: PLS-S2 and -S4) and measuring the time-dependent hydrolysis of the small chromogenic substrate o-nitrophenyl-β-D-galactopyranoside (ONPG) into o-nitrophenol (ONP) by cytoplasmic β-galactosidase (Fig. 5). The three peptides permeabilized the bacterial cytoplasmic membrane with increasing severity according to the time and the peptide concentration. […] To investigate the mechanism of permeabilization, E. coli ML-35p were incubated with PLS-S2 (30 and 100 µM) and PLS-S4 (25 and 100 µM) for 60 min and β-galactosidase activity was measured after removing bacteria by centrifugation and adding ONPG to the supernatant.
Figure 5 Kinetics of the cytoplasmic membrane leakage of E. coli ML-35p and S. aureus ST1065 after incubation with different concentrations of active phylloseptins-S. The membrane leakage was determined by measuring the production of o-nitrophenol at 405 nm following hydrolysis of ONPG by the cytoplasmic bacterial β-galactosidase. Data are expressed as the mean ± S.E.M of two experiments carried out in triplicates after subtraction of the negative control values (w/o peptide) from the test values. Control panels display the kinetics obtained without peptide (negative control) and with 10 µM dermaseptin B2 (Drs B2, positive control). For E. coli ML-35p, the extracellular release of β-galactosidase was also measured as the production of o-nitrophenol at 405 nm after incubation (60 min) of E. coli cells with PLS-S2 (30 and 100 µM) and PLS-S4 (25 and 100 µM), removing of bacteria by centrifugation and adding ONPG to the supernatant. The negative (w/o peptide) and positive (10 µM Drs B2) controls are indicated for comparison. Results are expressed as the mean ± S.E.M of one representative experiment performed in triplicates.

In test [2] the test system is C. parapsilosis ATCC 22019. Type of test: cell-based. The procedure: (§2) The effect of phylloseptins-S was evaluated against several bacterial strains and yeasts (Table 2). Bacteria were cultured in Luria-Bertani broth (LB), whereas yeasts were cultured in Yeast Peptone Dextrose medium (YPD), and minimal inhibitory concentrations (MICs) were determined by measuring the absorbance at 630 nm in 96-well microtitration plates, as described previously. Leishmanicidal activity of phylloseptins-S was also examined against promastigotes of different Leishmania species: Leishmania infantum (strain MHOM/MA/67/ITMAP-263), L. major (MHOM/SU/73/5-ASKH) and L. braziliensis (MHOM/BR/75/M2904). Culture of promastigotes and determination of the growth inhibition were performed as previously described, [22], [23].

Test [3] concerns L. braziliensis (MHOM/BR/75/M2904) promastigotes. Type of test: cell-based. As to the method:
as §2

Test [4] has as its system L. major (MHOM/SU/73/5-ASKH) promastigotes. Type of test: cell-based. As to the method: as §2
The next test concerns S. cerevisiae. Type of test: cell-based. The procedure: as §2
Test [5] concerns E. coli ML-35p. Briefly: Extracellular release of β-galactosidase. As to conditions: 60 min incubation; PLS-S2 30 and 100 µM, PLS-S4 25 and 100 µM, dermaseptin B2 10 µM; ONPG added to supernatant. The format is cell-based. As to the method: as §1
Figure 5 Kinetics of the cytoplasmic membrane leakage of E. coli ML-35p and S. aureus ST1065 after incubation with different concentrations of active phylloseptins-S. The membrane leakage was determined by measuring the production of o-nitrophenol at 405 nm following hydrolysis of ONPG by the cytoplasmic bacterial β-galactosidase. […] Results are expressed as the mean ± S.E.M of one representative experiment performed in triplicates.

Test [6] concerns E. coli ML-35p. Briefly: Time-kill assay. Type of test: cell-based. The conditions noted are these: MIC (25 µM) and two-fold above the MIC, in PBS; two experiments in triplicates. As to the method: The time-kill kinetics of phylloseptins-S against the Gram-negative bacteria E. coli ML-35p and the Gram-positive strain S. aureus ST1065 were evaluated as previously described with a dose of peptide corresponding to the MIC and two-fold above the MIC. Two experiments were realized in triplicates.
Figure 4 Time-kill curves of PLS-S1 (S1), -S2 (S2), and -S4 (S4). […] Controls correspond to bacteria incubated in PBS without peptide. The data are the means ± S.E.M. of two experiments carried out in triplicates.

The subject of the next test is P. aeruginosa ATCC 27853. As to conditions: LB medium (pH 7), absorbance at 630 nm; average of three independent experiments in triplicates. The procedure: as §2
(§3) The antimicrobial activity of synthetic PLS-S1 to -S5 was assayed in LB medium (pH 7) against several Gram-negative and Gram-positive bacteria, and multi-drug resistant S. aureus strains. […] The antiparasitic activity of PLSs was also determined against three Leishmania species (L. infantum, L. major, and L. braziliensis). […] Because PLS-S3 contains histidines as basic residues and that approximately only 11% of these residues are positively charged at pH 7, we have evaluated the antibacterial activity at pH 5 at which His residues are predominantly positively charged (∼91%).

For the next test, the system named is S. aureus ATCC 43300. As to conditions: strain resistant to methicillin and oxacillin; LB medium (pH 7), absorbance at 630 nm; average of three independent experiments in triplicates. The procedure: as §2, §3
Another test relates to S. aureus ATCC 25923. The conditions noted are these: LB medium (pH 7), absorbance at 630 nm, 96-well plates; average of three independent experiments in triplicates. The procedure:
as §2, §3

The test system of a further test is E. faecalis ATCC 29212. The conditions noted are these: LB medium (pH 7), absorbance at 630 nm; average of three independent experiments in triplicates. As to the method:
as §2, §3

Another test deals with E. coli ATCC 25922. As to conditions: for MIC: ATCC 25922, pH 7. The procedure: as §2, §3
In another test the test system is S. pyogenes ATCC 19615. As to conditions: LB medium (pH 7), absorbance at 630 nm; average of three independent experiments in triplicates. As to the method: as §2, §3
The next test concerns S. aureus ST1065. As to conditions: LB medium (pH 7), absorbance at 630 nm; average of three independent experiments in triplicates. The procedure: as §2, §3
The next test deals with K. pneumoniae ATCC 13883. As to conditions: LB medium (pH 7), absorbance at 630 nm; average of three independent experiments in triplicates. As to the method:
as §2, §3

For test [7], the system named is E. coli ML-35p. The conditions noted are these: LB medium (pH 7), absorbance at 630 nm; average of three independent experiments in triplicates. As to the method: as §2, §3
For a further test, the system named is S. aureus ATCC BAA-44. As to conditions: multidrug resistant strain; LB medium (pH 7), absorbance at 630 nm; average of three independent experiments in triplicates. As to the method:
as §2, §3

A further test has as its system A. baumannii ATCC 19606. The conditions noted are these: LB medium (pH 7), absorbance at 630 nm; average of three independent experiments in triplicates. As to the method:
as §2, §3

Broadly, the MIC is the least concentration at which growth counts as inhibited. By IC50 is commonly meant the point on the concentration scale where inhibition reaches its midpoint. High values mean weaker potency in that assay, low ones greater potency in that assay. Consider FLSMIPHIVSGVAALAKHL-NH2 [PLS-S4], for which the “permeabilization of the cytoplasmic membrane (in words)” value in the test on E. coli ML-35p [1] is given as “as efficient as with dermaseptin-B2”. In addition, the MIC came to 50 µM in test [2]; 12.5 µM with S. cerevisiae; 100 µM against P. aeruginosa ATCC 27853; 6.25 µM in the test on S. aureus ATCC 43300; 6.25 µM in the test with S. aureus ATCC 25923; 50 µM in the test on E. faecalis ATCC 29212. The MIC in the test with E. coli ATCC 25922 stood at 25 µM; against S. pyogenes ATCC 19615 it was 3.12 µM; with S. aureus ST1065 it was 6.25 µM; in the test on K. pneumoniae ATCC 13883, 25 µM; with E. coli ML-35p [7], 25 µM; in the test with S. aureus ATCC BAA-44 it was 6.25 µM. The substance also yielded an MIC with A. baumannii ATCC 19606 of 6.25 µM. Also, the IC50 in test [3] turned out to be 17.2 µM; in [4], 18 µM. Also, the “extracellular release of β-galactosidase (in words)” value with E. coli ML-35p [5] is “dose-dependent release of β-galactosidase”. Besides, the “killing kinetics (in words)” value with E. coli ML-35p [6] is reported as “Almost similar rapid killing kinetics”.

On to FLSLIPHIVSGVASLAKHF-NH2 [PLS-S2], for which, in the test on E. coli ML-35p [1], the “permeabilization of the cytoplasmic membrane (in words)” value is reported as “lower efficiency”. Moreover, the MIC in test [2] was 50 µM; against S. cerevisiae (YPD medium, absorbance at 630 nm, average of three independent experiments in triplicates), 6.25 µM; in the test on P. aeruginosa ATCC 27853, 200 µM; with S. aureus ATCC 43300, 6.25 µM; against S. aureus ATCC 25923, 6.25 µM; in the test on E. faecalis ATCC 29212, 25 µM. Further, the MIC against E. coli ATCC 25922 is 25 µM; against S. pyogenes ATCC 19615, 1.56 µM; against S. aureus ST1065, 6.25 µM; against K. pneumoniae ATCC 13883 it was 25 µM; with E. coli ML-35p [7] it was 30 µM; with S. aureus ATCC BAA-44, 6.25 µM. The same substance returned an MIC with A. baumannii ATCC 19606 of 6.25 µM. The IC50 in test [3] was 15 µM; in [4], 13.3 µM. Also, the “extracellular release of β-galactosidase (in words)” value in the test with E. coli ML-35p [5] is reported as “dose-dependent release of β-galactosidase”. Besides, the “killing kinetics (in words)” value in the test on E. coli ML-35p [6] was “Almost similar rapid killing kinetics”.

FLSLIPHIVSGVASIAKHF-NH2 [PLS-S1]: the MIC is on record as 100 µM in [2]; 12.5 µM against S. cerevisiae; more than 100 µM in the test on P. aeruginosa ATCC 27853; 6.25 µM in the test with S. aureus ATCC 43300; 6.25 µM against S. aureus ATCC 25923; 25 µM with E. faecalis ATCC 29212. Further, the MIC against E. coli ATCC 25922 is 70 µM; in the test with S. pyogenes ATCC 19615, 3.12 µM; against S. aureus ST1065 it was 6.25 µM; with K. pneumoniae ATCC 13883, more than 100 µM; in the test with E. coli ML-35p [7], more than 100 µM; against S. aureus ATCC BAA-44, 6.25 µM. In the test on A. baumannii ATCC 19606, this substance displayed an MIC of 6.25 µM. For the same substance, the IC50 in test [3] stood at 15.3 µM; in [4] it was 12.6 µM. Moreover, in the test on E. coli ATCC 25922 (ATCC 25922, pH 5), the “MIC at pH 5” value is on record as 12.5 µM.
